From US12384800B2, “Antitumoral compounds” (priority 2017, dated 2025)

What was measured:
HT1080 tumors = conditions: Day 0
Description: Female athymic nu/nu mice (Harlan Laboratories Models, S.L. Barcelona, Spain or Envigo, Spain) were utilized for all experiments. Animal were housed in individually ventilated cages Sealsafe® Plus, Techniplast S.P.A.), up to ten per cage on a 12-hour light-dark cycle at 21-23° C. and 40-60% humidity. […] Animals were acclimated for at least 5 days prior to tumor implantation with a tumor cell suspension.
HT1080 cells were maintained in vitro at 37° C. with 5% CO2 in Minimum Essential Medium Eagle (MEME) (Sigma-Aldrich, Co). Each animal was orthotopically implanted into gastroecnemius muscle by an intramuscular injection using a 26G needle and a 1 cc syringe at 4-6 weeks of age, with 10×10^6 HT1080 cells, suspended in serum free medium, without antibiotics.
Treatment tolerability was assessed by monitoring body weight evolution, clinical signs of systemic toxicity, as well as evidences of local damage in the injection site.
In xenograft studies with HT1080 cell line: • Total diameter (tumor+leg) measurements were determined by using digital caliper (Fowler Sylvac, S235PAT).
Treatments producing >20% lethality and/or 20% net body weight loss were considered toxic.

[1] = MTMD (Maximum Tolerated Multiple Dose) determination, iv weekly x 3; format: in vivo; conditions: mice; iv/Q7d × 3
In short: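 Female CD-1 or athymic nude mice received compound in formulation iv at different concentrations, once for MTD or weekly for three consecutive weeks for MTMD, with vehicle groups included. Clinical signs of systemic toxicity, body weight and mortality were followed up to 14 days after administration.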

**Q.** Which “Total diameter (tumor + leg)” value (HT1080 tumors) does the source give for `COc1c(C)cc2c(c1O)[C@@H]1[C@@H]3[C@@H]4SC[C@]5(NCCc6c5oc5ccccc65)C(=O)OC[C@@H](c5c6c(c(C)c(OC(C)=O)c54)OCO6)N3[C@@H](O)[C@H](C2)N1C` [Compound 32] here?
**A.** 7.5 mm

**Q.** And the MTMD [1]?
**A.** 0.5 mg/kg
